From patent publication US8247211B2, “Glycopeptide antibiotics” (American Cyanamid Company, priority 2001, dated 2012)
Converted amounts (≈) assume the structure as drawn.

Tests used:
Assay in all cases: In vitro antibacterial evaluation: minimum inhibitory concentration (MIC), broth dilution method
Assay type in all cases: cell-based
Enterococcus sp. = details: for MIC Enterococcus faecalis (ATCC 29212): strain ATCC 29212; for MIC Enterococcus faecalis (GC 4552): strain GC 4552
Procedure: (§1) The minimum inhibitory concentration (MIC), the lowest concentration of the antibiotic which inhibits growth of the test organism, is determined by the broth dilution method using Muller-Hinton II […] (Baltimore Biological Laboratories) following the recommendations of the National Committee for Clinical Laboratory Standards [Methods for dilution antimicrobial susceptibility tests for bacteria that grow aerobically, approved standard M7-A2, National Committee for Clinical Laboratory Standards, Villanova, Pa].
(§2) An inoculum level of 5×10^5 CFU/mL, and a range of antibiotic concentrations (64-0.06 μg/mL) is used. […] The test organisms include a spectrum of Gram-positive bacteria comprised of Staphylococcus sp., Streptococcus sp. and Enterococcus sp. These organisms include recent clinical isolates that are resistant to methicillin, penicillin and/or vancomycin.

Escherichia coli = test system: Escherichia coli
Procedure: as §1, §2

Staphylococcus sp. = details: for MIC Coagulase Negative Staphylococcus (GC 4537): strain GC 4537; for MIC Coagulase Negative Staphylococcus (GC 4538): strain GC 4538; for MIC Coagulase Negative Staphylococcus (GC 4547): strain GC 4547
Procedure: as §1, §2

[1] = broth dilution, 18 hours at 35° C.
[2] = strain SMITH GC 4536, broth dilution, 18 hours at 35° C.
[3] = broth dilution, 5×10^5 CFU/mL, 18 hours at 35° C.
[4] = 5×10^5 CFU/mL, 18 hours at 35° C.

SMILES | MIC Enterococcus faecalis (GC 4552) (Enterococcus sp.) [µg/mL] | MIC Escherichia coli (GC 4559) (Escherichia coli; strain GC 4559) [µg/mL] | MIC Coagulase Negative Staphylococcus (GC 4537) (Staphylococcus sp.) [µg/mL] | MIC Coagulase Negative Staphylococcus (GC 4537) (Staphylococcus sp.; [1]) [µg/mL] | MIC Coagulase Negative Staphylococcus (GC 4538) (Staphylococcus sp.) [µg/mL] | MIC Coagulase Negative Staphylococcus (GC 4538) (Staphylococcus sp.; [1]) [µg/mL] | MIC Coagulase Negative Staphylococcus (GC 4547) (Staphylococcus sp.) [µg/mL] | MIC Coagulase Negative Staphylococcus (GC 4547) (Staphylococcus sp.; [1]) [µg/mL] | MIC Staphylococcus aureus-SMITH (GC 4536) (Staphylococcus sp.; [2]) [µg/mL] | MIC Enterococccus faecalis (ATCC 29212) (Enterococcus sp.; [3]) [µg/mL] | MIC Enterococccus faecalis (GC 4552) (Enterococcus sp.; [3]) [µg/mL] | MIC Enterococcus faecalis (GC 2242) (Enterococcus sp.; [3]) [µg/mL] | MIC Escherichia coli (GC 4560) (Escherichia coli; [4]) [µg/mL] | MIC Enterococcus faecalis (ATCC 29212) (Enterococcus sp.) [µg/mL] | MIC Enterococcus faecalis (GC 2242) (Enterococcus sp.; strain GC 2242) [µg/mL] | MIC Escherichia coli (GC 4560) (Escherichia coli; strain GC 4560) [µg/mL] | MIC Staphylococcus aureus (ATCC 29213) (Staphylococcus sp.; [1]) [µg/mL] | MIC Staphylococcus aureus (GC 1131) (Staphylococcus sp.; [1]) [µg/mL] | MIC Staphylococcus aureus (GC 4535) (Staphylococcus sp.; [1]) [µg/mL] | MIC Staphylococcus aureus SMITH (GC 4536) (Staphylococcus sp.; [1]) [µg/mL] | also measured
CCCCCCC(=O)OCC1OC(N2C(=N)NCC2C(O)C2NC(=O)C(C(O)C3CNC(=N)N3)NC(=O)C(Cc3ccc(OC4OC(CO)C(OC5OC(CO)C(O)C(O)C5O)C(O)C4O)cc3)NC(=O)C(C(C)c3ccccc3)NC(=O)CNC(=O)C(CO)NC2=O)C(O)C(O)C1O (stereo not drawn) [Example 97] | >64 | >64 | >64 | >64 | >64 | >64 | >64 | >64 | >64 | – | – | – | – | >64 | >64 | 2 (≈ 1.42 µM) | >64 | >64 | >64 | >64 | –
CCCCCCC(=O)OCC1OC(Oc2ccc(CC3NC(=O)C(C(C)c4ccccc4)NC(=O)CNC(=O)C(CO)NC(=O)C(C(O)C4CNC(=N)N4C4OC(CO)C(O)C(O)C4O)NC(=O)C(C(O)C4CNC(=N)N4)NC3=O)cc2)C(O)C(O)C1OC1OC(CO)C(O)C(O)C1O (stereo not drawn) [Example 97a, Cyclo[glycyl-β-methylphenylalanyl-O-(6-O-heptanoyl-4-O-hexopyranosylhexopyranosyl)-tyrosyl-3-(2-iminoimidazolidin-4-yl)seryl-3-(3-hexopyranosyl-2-iminoimidazolidin-4-yl)-serylseryl]] | 16 (≈ 11.4 µM) | >64 | 4 (≈ 2.84 µM) | 4 (≈ 2.84 µM) | 2 (≈ 1.42 µM) | 2 (≈ 1.42 µM) | 2 (≈ 1.42 µM) | 2 (≈ 1.42 µM) | 0.5 (≈ 0.355 µM) | – | – | – | – | 8 (≈ 5.68 µM) | 4 (≈ 2.84 µM) | 1 (≈ 0.711 µM) | 1 (≈ 0.711 µM) | 2 (≈ 1.42 µM) | 2 (≈ 1.42 µM) | 0.5 (≈ 0.355 µM) | –
CC(c1ccccc1)C1NC(=O)CNC(=O)C(CO)NC(=O)C(C(O)C2CNC(=N)N2C2OC(CO)C(O)C(O)C2O)NC(=O)C(C(O)C2CNC(=N)N2)NC(=O)C(Cc2ccc(OC3OC(COC(=O)Cc4ccccc4)C(OC4OC(CO)C(O)C(O)C4O)C(O)C3O)cc2)NC1=O (stereo not drawn) [Example 98b] | – | – | 16 (≈ 11.3 µM) | 16 (≈ 11.3 µM) | 8 (≈ 5.66 µM) | 8 (≈ 5.66 µM) | 8 (≈ 5.66 µM) | 8 (≈ 5.66 µM) | 8 (≈ 5.66 µM) | – | – | – | – | 64 (≈ 45.3 µM) | 64 (≈ 45.3 µM) | 2 (≈ 1.42 µM) | 16 (≈ 11.3 µM) | 16 (≈ 11.3 µM) | 16 (≈ 11.3 µM) | 8 (≈ 5.66 µM) | –
CC(c1ccccc1)C1NC(=O)CNC(=O)C(CO)NC(=O)C(C(O)C2CNC(=N)N2C2OC(CO)C(O)C(O)C2O)NC(=O)C(C(O)C2CNC(=N)N2)NC(=O)C(Cc2ccc(OC3OC(CO)C(OC4OC(COC(=O)Cc5ccccc5)C(O)C(O)C4O)C(O)C3O)cc2)NC1=O (stereo not drawn) [Example 98c, Cyclo[glycyl-β-methylphenylalanyl-O-[4-O-[6-O-(phenylacetyl)hexopyranosyl]hexopyranosyl]-tyrosyl-3-(2-iminoimidazolidin-4-yl)seryl-3-(3-hexopyranosyl-2-iminoimidazolidin-4-yl)-serylseryl]] | 16 (≈ 11.3 µM) | 64 (≈ 45.3 µM) | 2 (≈ 1.42 µM) | 2 (≈ 1.42 µM) | 1 (≈ 0.708 µM) | 1 (≈ 0.708 µM) | 1 (≈ 0.708 µM) | 1 (≈ 0.708 µM) | 2 (≈ 1.42 µM) | – | – | – | – | 16 (≈ 11.3 µM) | 8 (≈ 5.66 µM) | 0.5 (≈ 0.354 µM) | 2 (≈ 1.42 µM) | 2 (≈ 1.42 µM) | 4 (≈ 2.83 µM) | 2 (≈ 1.42 µM) | –

More lines, main results first:

MIC Enterococcus faecalis (GC 4552) (Enterococcus sp.) [µg/mL] | MIC Escherichia coli (GC 4559) (Escherichia coli; strain GC 4559) [µg/mL] | MIC Coagulase Negative Staphylococcus (GC 4537) (Staphylococcus sp.) [µg/mL] | MIC Coagulase Negative Staphylococcus (GC 4537) (Staphylococcus sp.; [1]) [µg/mL] | MIC Coagulase Negative Staphylococcus (GC 4538) (Staphylococcus sp.) [µg/mL] | MIC Coagulase Negative Staphylococcus (GC 4538) (Staphylococcus sp.; [1]) [µg/mL] | MIC Coagulase Negative Staphylococcus (GC 4547) (Staphylococcus sp.) [µg/mL] | MIC Coagulase Negative Staphylococcus (GC 4547) (Staphylococcus sp.; [1]) [µg/mL] | MIC Staphylococcus aureus-SMITH (GC 4536) (Staphylococcus sp.; [2]) [µg/mL] | MIC Enterococccus faecalis (ATCC 29212) (Enterococcus sp.; [3]) [µg/mL] | MIC Enterococccus faecalis (GC 4552) (Enterococcus sp.; [3]) [µg/mL] | MIC Enterococcus faecalis (GC 2242) (Enterococcus sp.; [3]) [µg/mL] | MIC Escherichia coli (GC 4560) (Escherichia coli; [4]) [µg/mL] | SMILES | MIC Enterococcus faecalis (ATCC 29212) (Enterococcus sp.) [µg/mL] | MIC Enterococcus faecalis (GC 2242) (Enterococcus sp.; strain GC 2242) [µg/mL] | MIC Escherichia coli (GC 4560) (Escherichia coli; strain GC 4560) [µg/mL] | MIC Staphylococcus aureus (ATCC 29213) (Staphylococcus sp.; [1]) [µg/mL] | MIC Staphylococcus aureus (GC 1131) (Staphylococcus sp.; [1]) [µg/mL] | MIC Staphylococcus aureus (GC 4535) (Staphylococcus sp.; [1]) [µg/mL] | MIC Staphylococcus aureus SMITH (GC 4536) (Staphylococcus sp.; [1]) [µg/mL] | also measured
– | – | 2 (≈ 1.41 µM) | 2 (≈ 1.41 µM) | 1 (≈ 0.704 µM) | 1 (≈ 0.704 µM) | 1 (≈ 0.704 µM) | 1 (≈ 0.704 µM) | 2 (≈ 1.41 µM) | 8 (≈ 5.64 µM) | 8 (≈ 5.64 µM) | 8 (≈ 5.64 µM) | 0.5 (≈ 0.352 µM) | CC(c1ccccc1)C1NC(=O)CNC(=O)C(CO)NC(=O)C(C(O)C2CNC(=N)N2C2OC(CO)C(O)C(O)C2O)NC(=O)C(C(O)C2CNC(=N)N2)NC(=O)C(Cc2ccc(OC3OC(COC(=O)CCC4CCCC4)C(OC4OC(CO)C(O)C(O)C4O)C(O)C3O)cc2)NC1=O (stereo not drawn) [Example 100b, Cyclo[glycyl-β-methylphenylalanyl-O-[6-O-(3-cyclopentylpropanoyl)-4-O-hexopyranosyl-hexopyranosyl]tyrosyl-3-(2-iminoimidazolidin-4-yl)seryl-3-(3-hexopyranosyl-2-iminoimidazolidin-4-yl)serylseryl]] | – | – | – | – | – | – | – | MIC Staphylococcus aureus (ATCC 29213) (Staphylococcus sp.; strain ATCC 29213): 2 µg/mL (≈ 1.41 µM); MIC Staphylococcus aureus (GC 1131) (Staphylococcus sp.; strain GC 1131): 2 µg/mL (≈ 1.41 µM); MIC Staphylococcus aureus (GC 4535) (Staphylococcus sp.; strain GC 4535): 2 µg/mL (≈ 1.41 µM); MIC Staphylococcus aureus-SMITH (GC 4536) (Staphylococcus sp.; strain GC 4536): 2 µg/mL (≈ 1.41 µM)
– | – | 1 (≈ 0.704 µM) | 1 (≈ 0.704 µM) | 1 (≈ 0.704 µM) | 1 (≈ 0.704 µM) | 1 (≈ 0.704 µM) | 1 (≈ 0.704 µM) | 1 (≈ 0.704 µM) | 4 (≈ 2.82 µM) | 4 (≈ 2.82 µM) | 2 (≈ 1.41 µM) | 0.5 (≈ 0.352 µM) | CC(c1ccccc1)C1NC(=O)CNC(=O)C(CO)NC(=O)C(C(O)C2CNC(=N)N2C2OC(CO)C(O)C(O)C2O)NC(=O)C(C(O)C2CNC(=N)N2)NC(=O)C(Cc2ccc(OC3OC(CO)C(OC4OC(COC(=O)CCC5CCCC5)C(O)C(O)C4O)C(O)C3O)cc2)NC1=O (stereo not drawn) [Example 100c, Cyclo[glycyl-β-methylphenylalanyl-O-[4-O-[6-O-(3-cyclopentylpropanoyl)hexopyranosyl]-hexopyranosyl]tyrosyl-3-(2-iminoimidazolidin-4-yl)seryl-3-(3-hexopyranosyl-2-iminoimidazolidin-4-yl)serylseryl]] | – | – | – | – | – | – | – | MIC Escherichia coli (GC 4559) (Escherichia coli; [4]): 32 µg/mL (≈ 22.5 µM); MIC Staphylococcus aureus (ATCC 29213) (Staphylococcus sp.; strain ATCC 29213): 1 µg/mL (≈ 0.704 µM); MIC Staphylococcus aureus (GC 1131) (Staphylococcus sp.; strain GC 1131): 1 µg/mL (≈ 0.704 µM); MIC Staphylococcus aureus (GC 4535) (Staphylococcus sp.; strain GC 4535): 1 µg/mL (≈ 0.704 µM); MIC Staphylococcus aureus-SMITH (GC 4536) (Staphylococcus sp.; strain GC 4536): 1 µg/mL (≈ 0.704 µM)
